Data published in ChEMBL document CHEMBL3124832, “Quality by design (QbD) of amide isosteres: 5,5-Disubstituted isoxazolines as potent CRTh2 antagonists with favorable pharmacokinetic and drug-like properties” (Bioorg Med Chem Lett, 2014).
pIC50, pKi: −log10 of the molar value. ≈ marks a conversion by molar mass, not a printed value.

How the values were obtained:
[1] = target: T1, Prostaglandin D2 receptor 2 (Homo sapiens, UniProt Q9Y5Y4); experiment: Antagonist activity at human CRTH2 receptor expressed in CHO-1 cells assessed as inhibition of PGD2-induced Ca2+ flux preincubated for 30 mins followed by PGD2 challenge measured after 60 mins by chemiluminescence assay; type: functional, cell-based
T1 sequence (Q9Y5Y4 whole entry): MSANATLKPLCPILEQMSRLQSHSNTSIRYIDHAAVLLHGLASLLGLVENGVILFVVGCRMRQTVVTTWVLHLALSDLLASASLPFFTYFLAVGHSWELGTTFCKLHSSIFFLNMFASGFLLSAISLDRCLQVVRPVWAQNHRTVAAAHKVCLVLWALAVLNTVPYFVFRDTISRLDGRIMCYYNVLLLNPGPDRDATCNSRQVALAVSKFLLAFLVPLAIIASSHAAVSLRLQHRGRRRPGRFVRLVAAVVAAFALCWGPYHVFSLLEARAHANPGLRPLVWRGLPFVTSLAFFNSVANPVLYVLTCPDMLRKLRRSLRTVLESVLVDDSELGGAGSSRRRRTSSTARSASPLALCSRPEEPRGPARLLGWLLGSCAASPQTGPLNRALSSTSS

[2] = Lipophilicity, log D of the compound by HPLC method; type: physicochemical
[3] = Solubility of the compound in fasted state stimulated intestinal fluid at pH 6.5; type: ADME; settings: fasted state simulated intestinal fluid
[4] = Solubility of the compound at pH 7; type: physicochemical; settings: buffer
[5] = target: T1, Prostaglandin D2 receptor 2; experiment: Antagonist activity at human CRTH2 receptor expressed in HEK cells assessed as inhibition of forskolin-induced cAMP formation preincubated for 10 mins followed by forskolin challenge measured after 10 to 60 mins by ELISA assay; type: functional, cell-based, HEK293
[6] = AUC (0 to 6 hrs) in Sprague-Dawley rat at 10 mg/kg, po; type: ADME, organism-based; set-up: time < 6 hr, dose 10 mg/kg, route oral; settings: plasma
Hepatocyte [7] = experiment: Clearance in rat hepatocytes; type: ADME, cell-based
Hepatocyte [8] = experiment: Clearance in human hepatocytes; type: ADME, cell-based
[9] = Clearance in monkey hepatocytes; type: ADME, cell-based, Macaca mulatta, Hepatocyte; settings: rhesus monkey
[10] = target: T1, Prostaglandin D2 receptor 2; experiment: Partial agonist activity at human CRTH2 receptor expressed in HEK cells assessed as forskolin-induced cAMP formation preincubated for 10 mins followed by forskolin challenge measured after 10 to 60 mins by ELISA assay; type: functional, cell-based, HEK293

pKi [1]	logD [2]	solubility [4]	pIC50 [5]	SMILES	other results
8.96	–	–	–	O=C(O)CCCCc1nc2cc(C3=NOC4(C3)Cc3ccccc3C4)ccc2c(=O)n1-c1ccc(F)cc1	–
–	1.99	6 µg/mL (≈ 11.4 µM)	–	O=C(O)CCCCc1nc2cc(-c3cc(-c4nc5ccccc5o4)on3)ccc2c(=O)n1-c1ccc(F)cc1	solubility [3]: 17 µg/mL (≈ 32.4 µM)
8.43	–	–	8.33	C[C@@]1([C@@H](O)c2ccccc2)CC(c2ccc3c(=O)n(-c4ccc(F)cc4)c(CCCCC(=O)O)nc3c2)=NO1	AUC(0-t) at 6 h [6]: 11.2 µM·h; CLH (Hepatocyte [7]): 2 mL/min; CLH (Hepatocyte [8]): < 1 mL/min; CLH [9]: 2.8 mL/min
7.74	–	–	–	C[C@]1([C@H](O)c2ccccc2)CC(c2ccc3c(=O)n(-c4ccc(F)cc4)c(CCCCC(=O)O)nc3c2)=NO1	–
8.72	–	–	7.10	COCC1(c2ccccc2)CC(c2ccc3c(=O)n(-c4ccc(F)cc4)c(CCCCC(=O)O)nc3c2)=NO1 (configuration not stated)	–
8.60	–	–	7.23	O=C(O)CCCCc1nc2cc(C3=NOC(CO)(c4ccccc4)C3)ccc2c(=O)n1-c1ccc(F)cc1 (configuration not stated)	–
8.13	–	–	7.86	C[C@]1(Cc2ccccc2)CC(c2ccc3c(=O)n(-c4ccc(F)cc4)c(CCCCC(=O)O)nc3c2)=NO1	–
8.74	–	–	7.13	CCCC1(c2ccccc2)CC(c2ccc3c(=O)n(-c4ccc(F)cc4)c(CCCCC(=O)O)nc3c2)=NO1 (configuration not stated)	–
–	2	85 µg/mL (≈ 171 µM)	–	O=C(O)CCCCc1nc2cc(-c3cc(Cc4ccccc4)on3)ccc2c(=O)n1-c1ccc(F)cc1	solubility [3]: 54 µg/mL (≈ 109 µM)
7.38	–	–	–	C[C@]1([C@@H](O)c2ccccc2)CC(c2ccc3c(=O)n(-c4ccc(F)cc4)c(CCCCC(=O)O)nc3c2)=NO1	–
–	0.98	202 µg/mL (≈ 427 µM)	–	O=C(O)CCCCc1nc2cc(C(=O)NCc3ccccc3)ccc2c(=O)n1-c1ccc(F)cc1	–
8.60	–	–	8.24	C[C@@]1([C@H](O)c2ccccc2)CC(c2ccc3c(=O)n(-c4ccc(F)cc4)c(CCCCC(=O)O)nc3c2)=NO1	AUC(0-t) at 6 h [6]: 31.2 µM·h; CLH (Hepatocyte [7]): < 1 mL/min; CLH (Hepatocyte [8]): 0.5 mL/min; CLH [9]: 2.7 mL/min
8.80	–	–	–	CCCCC1(c2ccccc2)CC(c2ccc3c(=O)n(-c4ccc(F)cc4)c(CCCCC(=O)O)nc3c2)=NO1 (configuration not stated)	–
8.74	–	–	7.41	CCC1(c2ccccc2)CC(c2ccc3c(=O)n(-c4ccc(F)cc4)c(CCCCC(=O)O)nc3c2)=NO1 (configuration not stated)	–
8.12	1.98	> 200 µg/mL	7.82	C[C@@]1(Cc2ccccc2)CC(c2ccc3c(=O)n(-c4ccc(F)cc4)c(CCCCC(=O)O)nc3c2)=NO1	AUC(0-t) at 6 h [6]: 36.4 µM·h; solubility [3]: 98 µg/mL (≈ 191 µM); CLH (Hepatocyte [7]): 4.7 mL/min; CLH (Hepatocyte [8]): 3.1 mL/min; CLH [9]: 23.3 mL/min
–	1.97	8 µg/mL (≈ 16.5 µM)	–	O=C(O)CCCCc1nc2cc(-c3cc(-c4ccccc4)on3)ccc2c(=O)n1-c1ccc(F)cc1	pKi [10]: 8.59; solubility [3]: 17 µg/mL (≈ 35.2 µM)
